Measurements taken from US11192888B2, “Antibacterial compounds” (priority 2017, dated 2021).
Converted amounts (≈) assume the structure as drawn. Like-named read-outs stand apart in the source and are kept apart here. *1 amine or outer side, *2 acyl side, *3 side chain or, on linkers, in order; H or OH if unused. Where a SMILES comes first, the peptide text is derived from it. [ ]: non-standard residue; d: D form. dAla(ψthiazole) = C[C@@H](N[*:1])c1nc(C(=O)[*:2])cs1; Trp(4-Cl) = N[C@@H](Cc1c[nH]c2cccc(Cl)c12)C(=O)O; Dhb = C/C=C(\N)C(=O)O; Sar = CNCC(=O)O

Experiments:
[1] = amide bond, 24-membered ring, PyBOP/HOBt/DIPEA, 0.5 mM
[2] = system: P. aeruginosa clinical strains and PAO1 (wild-type strain); test: Antibiotic sensitivity of P. aeruginosa clinical strains and PAO1 (MIC); type: cell-based, Pseudomonas aeruginosa
Text: In this regard, four clinical isolates of P. aeruginosa were obtained from the University of Nottingham.

[3] = system: Clostridium difficile strains (21 clinical, 7 reference)

C=C1NC(=O)[C@@H](C)NC(=O)CNC(=O)[C@H](Cc2c[nH]c3cccc(C(F)(F)F)c23)NC(=O)[C@H](Cc2c[nH]c3ccccc23)NC(=O)c2csc(n2)[C@@H](C)NC(=O)CN(C)C1=O [Cyclo[D-Ala-Thz-Trp-Trp(4-CF3)-Gly-D-Ala-Dha-Sar]]
ring closure, yield after HPLC ([1]; from H-dAla-Thz-Trp-Trp(4-CF3)-Gly-dAla-Dha-Sar-OH?): 6%

NC[C@H]1O[C@H](O[C@H]2[C@H](O)[C@@H](O[C@H]3O[C@H](CO)[C@@H](O)[C@H](N)[C@H]3O)[C@H](N)C[C@@H]2N)[C@H](N)C[C@@H]1O [Tobramycin]
MIC of antibiotic ([2]; strain PAO1): <4 µM
MIC of antibiotic ([2]; strain W4): 9 µM
MIC of antibiotic ([2]; strain W14): 25 µM
MIC of antibiotic ([2]; strain W23): <4 µM
MIC of antibiotic ([2]; strain W46): <4 µM

C=C1NC(=O)[C@@H](C)NC(=O)CNC(=O)[C@H](Cc2c[nH]c3cccc(Cl)c23)NC(=O)[C@H](Cc2c[nH]c3ccccc23)NC(=O)c2csc(n2)[C@@H](C)NC(=O)CN(C)C1=O [Cyclo[D-Ala-Thz-Trp-Trp(4-C1)-Gly-D-Ala-Dha-Sar]]
ring closure, yield after HPLC ([1]; from H-dAla-Thz-Trp-Trp(4-Cl)-Gly-dAla-Dha-Sar-OH?): 5%

Gentamicin
MIC of antibiotic ([2]; strain PAO1): <4 µM
MIC of antibiotic ([2]; strain W4): 8 µM
MIC of antibiotic ([2]; strain W14): 8 µM
MIC of antibiotic ([2]; strain W23): <4 µM
MIC of antibiotic ([2]; strain W46): <4 µM

C=C1NC(=O)[C@@H](C)NC(=O)CNC(=O)[C@H](Cc2c[nH]c3cccc(F)c23)NC(=O)[C@H](Cc2c[nH]c3ccccc23)NC(=O)c2csc(n2)[C@@H](C)NC(=O)CN(C)C1=O [Cyclo[D-Ala-Thz-Trp-Trp(4-F)-Gly-D-Ala-Dha-Sar]]
ring closure, yield after HPLC ([1]; from H-dAla-Thz-Trp-Trp(4-F)-Gly-dAla-Dha-Sar-OH?): 2%

C=C1NC(=O)[C@@H](C)NC(=O)CNC(=O)[C@H](Cc2c[nH]c3cccc(Br)c23)NC(=O)[C@H](Cc2c[nH]c3ccccc23)NC(=O)c2csc(n2)[C@@H](COC)NC(=O)CN(C)C1=O [Cyclo[D-Ser(OMe)-Thz-Trp-Trp(4-Br)-Gly-D-Ala-Dha-Sar]]
ring closure, yield after HPLC ([1]; from H-dSer(OMe)-Thz-Trp-Trp(4-Br)-Gly-dAla-Dha-Sar-OH?): 6%

C/C=C1\NC(=O)[C@@H](C)NC(=O)CNC(=O)[C@H](Cc2c[nH]c3cccc(Br)c23)NC(=O)[C@H](Cc2c[nH]c3ccccc23)NC(=O)c2csc(n2)[C@@H](COC)NC(=O)CN(C)C1=O [Cyclo[D-Ser(OMe)-Thz-Trp-Trp(4-Br)-Gly-D-Ala-Dhb-Sar]]
ring closure, yield after HPLC ([1]; from H-dSer(OMe)-Thz-Trp-Trp(4-Br)-Gly-dAla-Dhb-Sar-OH?): 19%

C/C=C1\NC(=O)[C@@H](C)NC(=O)CNC(=O)[C@H](Cc2c[nH]c3cccc(Br)c23)NC(=O)[C@H](Cc2c[nH]c3ccccc23)NC(=O)c2csc(n2)[C@@H](C)NC(=O)CN(C)C1=O [Cyclo[D-Ala-Thz-Trp-Trp(4-Br)-Gly-D-Ala-Dhb-Sar]]
ring closure, yield after HPLC ([1]; from H-dAla-Thz-Trp-Trp(4-Br)-Gly-dAla-Dhb-Sar-OH?): 35%

C=C1NC(=O)[C@@H](C)NC(=O)CNC(=O)[C@H](Cc2c[nH]c3cccc(OC)c23)NC(=O)[C@H](Cc2c[nH]c3ccccc23)NC(=O)c2csc(n2)[C@@H](C)NC(=O)CN(C)C1=O [Cyclo[D-Ala-Thz-Trp-Trp(4-MeO)-Gly-D-Ala-Dha-Sar]]
ring closure, yield after HPLC ([1]; from H-dAla-Thz-Trp-Trp(4-MeO)-Gly-dAla-Dha-Sar-OH?): 11%

NCC[C@H](O)C(=O)N[C@@H]1C[C@H](N)[C@@H](O[C@H]2O[C@H](CN)[C@@H](O)[C@H](O)[C@H]2O)[C@H](O)[C@H]1O[C@H]1O[C@H](CO)[C@@H](O)[C@H](N)[C@H]1O [Amikacin]
MIC of antibiotic ([2]; strain PAO1): <14 µM
MIC of antibiotic ([2]; strain W4): 24 µM
MIC of antibiotic ([2]; strain W14): 41 µM
MIC of antibiotic ([2]; strain W23): <14 µM
MIC of antibiotic ([2]; strain W46): <14 µM

C[C@@H](O)[C@H]1C(=O)N2C(C(=O)O)=C(S[C@@H]3CN[C@H](C(=O)N(C)C)C3)[C@H](C)[C@H]12 [Meropenem]
MIC of antibiotic ([2]; strain PAO1): >45 µM
MIC of antibiotic ([2]; strain W4): >45 µM
MIC of antibiotic ([2]; strain W14): 9 µM
MIC of antibiotic ([2]; strain W23): >45 µM
MIC of antibiotic ([2]; strain W46): 14 µM

C=C1NC(=O)[C@@H](C)NC(=O)CNC(=O)[C@H](Cc2c[nH]c3cccc(Br)c23)NC(=O)[C@H](Cc2c[nH]c3ccccc23)NC(=O)c2csc(n2)[C@@H](C)NC(=O)CN(C)C1=O [Cyclo[D-Ala-Thz-Trp-Trp(4-Br)-Gly-D-Ala-Dha-Sar]]
ring closure, yield after HPLC ([1]; from H-dAla-Thz-Trp-Trp(4-Br)-Gly-dAla-Dha-Sar-OH?): 7%

C/C=C1\NC(=O)[C@@H](C)NC(=O)CNC(=O)[C@H](Cc2c[nH]c3cccc(Cl)c23)NC(=O)[C@H](Cc2c[nH]c3ccccc23)NC(=O)c2csc(n2)[C@@H](C)NC(=O)CN(C)C1=O [Cyclo[D-Ala-Thz-Trp-Trp(4-Cl)-Gly-D-Ala-Dhb-Sar]]
ring closure, yield after HPLC ([1]; from H-dAla-Thz-Trp-Trp(4-Cl)-Gly-dAla-Dhb-Sar-OH?): 5%

C=C1NC(=O)[C@@H](C)NC(=O)CNC(=O)[C@H](Cc2c[nH]c3cccc(Cl)c23)NC(=O)[C@H](Cc2c[nH]c3ccccc23)NC(=O)c2csc(n2)[C@@H](CO)NC(=O)CN(C)C1=O [Cyclo[D-Ser-Thz-Trp-Trp(4-C1)-Gly-D-Ala-Dha-Sar]]
ring closure, yield after HPLC ([1]; from H-dSer-Thz-Trp-Trp(4-Cl)-Gly-dAla-Dha-Sar-OH?): 4%

C[C@H]1NC(=O)CNC(=O)[C@H](Cc2c[nH]c3cccc(Cl)c23)NC(=O)[C@H](Cc2c[nH]c3ccccc23)NC(=O)c2csc(n2)[C@@H](C)NC(=O)CN(C)C(=O)[C@H]([C@@H](C)O)NC1=O [Cyclo[D-Ala-Thz-Trp-Trp(4-Cl)-Gly-D-Ala-Thr-Sar]]
ring closure, yield after HPLC ([1]; from H-dAla-Thz-Trp-Trp(4-Cl)-Gly-dAla-Thr-Sar-OH?): 14%

C[C@H]1NC(=O)CNC(=O)[C@H](Cc2c[nH]c3cccc(Br)c23)NC(=O)[C@H](Cc2c[nH]c3ccccc23)NC(=O)c2csc(n2)[C@@H](C)NC(=O)CN(C)C(=O)/C(=C/c2ccccc2)NC1=O [Cyclo[D-Ala-Thz-Trp-Trp(4-Br)-Gly-D-Ala-Dhp-Sar]]
ring closure, yield after HPLC ([1]; from H-dAla-Thz-Trp-Trp(4-Br)-Gly-dAla-Dhp-Sar-OH?): 35%

C[C@H]1[C@H](NC(=O)/C(=N\OC(C)(C)C(=O)O)c2csc(N)n2)C(=O)N1S(=O)(=O)O [Aztreonam]
MIC of antibiotic ([2]; strain PAO1): <9 µM
MIC of antibiotic ([2]; strain W4): 18 µM
MIC of antibiotic ([2]; strain W14): >92 µM
MIC of antibiotic ([2]; strain W23): <9 µM
MIC of antibiotic ([2]; strain W46): <9 µM

C/C=C1\NC(=O)[C@@H](C)NC(=O)CNC(=O)[C@H](Cc2c[nH]c3cccc(Cl)c23)NC(=O)[C@H](Cc2c[nH]c3ccccc23)NC(=O)c2csc(n2)[C@@H](C)NC(=O)CN(C)C1=O [Compound 9, Cyclo[D-Ala-Thz-Trp-Trp(4-Cl)-Gly-D-Ala-Dhb-Sar]] (cyclo([Dhb][Sar][dAla(ψthiazole)]W[Trp(4-Cl)]G[dA]))
MIC40 ([3]; 28 C. difficile strains): 0.5 µg/mL (≈ 0.593 µM)
MIC50 ([3]; 28 C. difficile strains): 0.50 µg/mL (≈ 0.593 µM)
MIC90 ([3]; 28 C. difficile strains): 0.50 µg/mL (≈ 0.593 µM)
MIC ([3]; C. difficile strain 630 (ribotype 012)): 0.25 µg/mL (≈ 0.296 µM)
MIC ([3]; C. difficile strain ATCC 9689 (ribotype 001)): 0.5 µg/mL (≈ 0.593 µM)
MIC ([3]; C. difficile strain ATCC 13366): 1 µg/mL (≈ 1.19 µM)
MIC ([3]; C. difficile strain ATCC 43255): 0.25 µg/mL (≈ 0.296 µM)
MIC ([3]; C. difficile strain ATCC 700057 (ribotype 038)): 0.25 µg/mL (≈ 0.296 µM)
MIC ([3]; C. difficile strain ATCC BAA 1875 (ribotype 078)): 0.5 µg/mL (≈ 0.593 µM)
MIC ([3]; C. difficile strain BI1-FDX^R): 0.25 µg/mL (≈ 0.296 µM)
MIC ([3]; C. difficile strain Clin. 1): 0.5 µg/mL (≈ 0.593 µM)
MIC ([3]; C. difficile strain Clin. 2): 0.5 µg/mL (≈ 0.593 µM)
MIC ([3]; C. difficile strain Clin. 3): 0.25 µg/mL (≈ 0.296 µM)
MIC ([3]; C. difficile strain Clin. 5): 0.5 µg/mL (≈ 0.593 µM)
MIC ([3]; C. difficile strain Clin. 6): 0.5 µg/mL (≈ 0.593 µM)
MIC ([3]; C. difficile strain Clin. 7): 0.5 µg/mL (≈ 0.593 µM)
MIC ([3]; C. difficile strain Clin. 8): 0.5 µg/mL (≈ 0.593 µM)
MIC ([3]; C. difficile strain Clin. 9): 0.5 µg/mL (≈ 0.593 µM)
MIC ([3]; C. difficile strain Clin. 10): 0.5 µg/mL (≈ 0.593 µM)
MIC ([3]; C. difficile strain Clin. 11): 0.5 µg/mL (≈ 0.593 µM)
MIC ([3]; C. difficile strain Clin. 12): 0.5 µg/mL (≈ 0.593 µM)
MIC ([3]; C. difficile strain Clin. 13): 0.5 µg/mL (≈ 0.593 µM)
MIC ([3]; C. difficile strain Clin. 14): 0.5 µg/mL (≈ 0.593 µM)
MIC ([3]; C. difficile strain Clin. 15): 0.5 µg/mL (≈ 0.593 µM)
MIC ([3]; C. difficile strain Clin. 16): 0.25 µg/mL (≈ 0.296 µM)
MIC ([3]; C. difficile strain Clin. 18): 0.5 µg/mL (≈ 0.593 µM)
MIC ([3]; C. difficile strain Clin. 20): 0.5 µg/mL (≈ 0.593 µM)
MIC ([3]; C. difficile strain Clin. 21): 0.5 µg/mL (≈ 0.593 µM)
MIC ([3]; C. difficile strain Clin. 22): 0.5 µg/mL (≈ 0.593 µM)
MIC ([3]; C. difficile strain Clin. 23): 0.5 µg/mL (≈ 0.593 µM)
MIC ([3]; C. difficile strain Clin. 24): 0.5 µg/mL (≈ 0.593 µM)

Colistin
MIC of antibiotic ([2]; strain PAO1): 3 µM
MIC of antibiotic ([2]; strain W4): 3 µM
MIC of antibiotic ([2]; strain W14): >8 µM
MIC of antibiotic ([2]; strain W23): 2 µM
MIC of antibiotic ([2]; strain W46): 2 µM

CC(C)/C=C1\NC(=O)[C@@H](C)NC(=O)CNC(=O)[C@H](Cc2c[nH]c3cccc(Br)c23)NC(=O)[C@H](Cc2c[nH]c3ccccc23)NC(=O)c2csc(n2)[C@@H](C)NC(=O)CN(C)C1=O [Cyclo[D-Ala-Thz-Trp-Trp(4-Br)-Gly-D-Ala-Dhl-Sar]]
ring closure, yield after HPLC ([1]; from H-dAla-Thz-Trp-Trp(4-Br)-Gly-dAla-Dhl-Sar-OH?): 35%

CC(C)=C1NC(=O)[C@@H](C)NC(=O)CNC(=O)[C@H](Cc2c[nH]c3cccc(Br)c23)NC(=O)[C@H](Cc2c[nH]c3ccccc23)NC(=O)c2csc(n2)[C@@H](C)NC(=O)CN(C)C1=O [Cyclo[D-Ala-Thz-Trp-Trp(4-Br)-Gly-D-Ala-Dhv-Sar]]
ring closure, yield after HPLC ([1]; from H-dAla-Thz-Trp-Trp(4-Br)-Gly-dAla-Dhv-Sar-OH?): 42%
